Reference: US12371454B2, “Cyclic peptide compound having Kras inhibitory action” (priority 2019, dated 2025)
Starred links: 1 amine or outer side, 2 acyl side, 3 side chain; linkers in the order of their positions; H or OH if unused. Positions of bridges follow the written chain, without caps; N, C: chain ends. Non-standard residues stand in square brackets, D forms with d. Residues, ends and D or L forms follow the SMILES beside them. *: point of attachment. hPhe(3-Cl-4-CF3) = N[C@@H](CCc1ccc(C(F)(F)F)c(Cl)c1)C(=O)O; hPhe(3-F,4-CF3) = N[C@@H](CCc1ccc(C(F)(F)F)c(F)c1)C(=O)O; X38 = CN([C@@H](Cc1cccc(OC(F)(F)F)c1)C(=O)[*:2])[*:1]; NMePhe(4-CF3) = CN[C@@H](Cc1ccc(C(F)(F)F)cc1)C(=O)O; X15 = COc1cc(CC[C@H](N[*:1])C(=O)[*:2])cc(Cl)c1Cl; hPhe(3,4-Cl2) = N[C@@H](CCc1ccc(Cl)c(Cl)c1)C(=O)O; 3Oxa8azabicyclo(3.2.1)octane = C1CC2COCC1N2*; NMeAbu(4,4,4-F3) = CN[C@@H](CC(F)(F)F)C(=O)O; NMePhe(3-Br) = CN[C@@H](Cc1cccc(Br)c1)C(=O)O; NMePhe(3-Cl) = CN[C@@H](Cc1cccc(Cl)c1)C(=O)O; NMePhe(4-Me) = CN[C@@H](Cc1ccc(C)cc1)C(=O)O; NMePhe(4-F) = CN[C@@H](Cc1ccc(F)cc1)C(=O)O; NMeGly(cPent) = CN[C@H](C(=O)O)C1CCCC1; NMeCha = CN[C@@H](CC1CCCCC1)C(=O)O; Ala(cPr) = N[C@@H](CC1CC1)C(=O)O; NMeChg = CN[C@H](C(=O)O)C1CCCCC1; NMeI = CC[C@H](C)[C@H](NC)C(=O)O; N(CH2CH2)2CF2 = FC1(F)CCN(*)CC1; NMeD = CN[C@@H](CC(=O)O)C(=O)O; NMeL = CN[C@@H](CC(C)C)C(=O)O; NMeV = CN[C@H](C(=O)O)C(C)C; d(β3hA) = C[C@@H](N)CC(=O)O; NMeA = CN[C@@H](C)C(=O)O; Piperidide = C1CCN(*)CC1; Ac5c = NC1(C(=O)O)CCCC1; Aze = O=C(O)[C@@H]1CCN1; Ac4c = NC1(C(=O)O)CCC1; Sar = CNCC(=O)O

Assays:
[1] = tested on: Human pancreatic cancer cell line AsPC-1; experiment: Measurement of AsPC-1 cell growth inhibition (AsPC-1 CGI); assay type: cell-based; conditions: 96 h
Procedure, shortened: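 AsPC-1 cells in 15% FBS RPMI-1640 were exposed to test compound for 96 hours at 37° C, with CellTiter-Glo as endpoint.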

[2] = biological target: T1, Kras and SOS1 (biotin-tagged human Kras loaded with GDP, His-tagged human SOS1) (Homo sapiens, UniProt P01116, G12D); experiment: Protein-protein interaction inhibition between Kras and SOS1 (KrasGl2D-SOS PPI) using AlphaScreen; assay type: binding; conditions: AlphaScreen; biotin-tagged human Kras loaded with GDP, His-tagged human SOS1; read-out: KRAS G12D-SOS PPI IC50
T1 construct: made in house; host or cells: E. coli (stated for Kras only)
T1 sequence (P01116 1-188 isoform P01116-2 G12D): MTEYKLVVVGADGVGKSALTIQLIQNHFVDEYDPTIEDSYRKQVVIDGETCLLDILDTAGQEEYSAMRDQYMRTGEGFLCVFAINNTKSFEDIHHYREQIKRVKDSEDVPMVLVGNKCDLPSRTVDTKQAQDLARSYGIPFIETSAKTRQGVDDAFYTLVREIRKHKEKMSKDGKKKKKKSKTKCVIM
Procedure, shortened: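 Kras was produced in E. coli, purified, then loaded with GDP. It was paired via streptavidin acceptor beads with His-SOS1 held on nickel donor beads, and proximity signal at 520-620 nm was read after 680 nm illumination.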

Compound	IC50 [1] [nM]	IC50 [2] [nM]
CC[C@H](C)[C@@H]1NC(=O)[C@H](C)N(C)C(=O)C[C@@H](C(=O)N2CCCCC2)N(C)C(=O)[C@H](C2CCCCC2)N(C)C(=O)C2(CCCC2)NC(=O)[C@@H]2CCCN2C(=O)[C@H](CCc2ccc(Cl)c(Cl)c2)NC(=O)CN(C)C(=O)[C@H](CC2CCCCC2)N(C)C(=O)CN(C)C(=O)CN(C)C1=O [Compound 825] ([NMeA]I[Sar][Sar][NMeCha][Sar][hPhe(3,4-Cl2)]P[Ac5c][NMeChg][NMeD]-Piperidide; lactam N-11)	50 to 100	0.35
CC[C@H](C)[C@@H]1NC(=O)[C@H](CC(C)C)N(C)C(=O)C[C@@H](C)NC(=O)[C@H](C2CCCC2)N(C)C(=O)C2(CCC2)NC(=O)[C@@H]2CCCN2C(=O)[C@H](CCc2ccc(C(F)(F)F)c(Cl)c2)NC(=O)CN(C)C(=O)[C@H](CC2CCCCC2)N(C)C(=O)CN(C)C(=O)CN(C)C1=O [Compound 1544] (cyclo([Ac4c][NMeGly(cPent)][d(β3hA)][NMeL]I[Sar][Sar][NMeCha][Sar][hPhe(3-Cl-4-CF3)]P))	100 to 500	5.6
CC(C)C[C@H]1C(=O)N[C@@H](CC2CC2)C(=O)N(C)CC(=O)N(C)CC(=O)N(C)[C@@H](CC2CCCCC2)C(=O)N(C)CC(=O)N[C@@H](CCc2ccc(C(F)(F)F)c(Cl)c2)C(=O)N2CCC[C@H]2C(=O)NC2(CCCC2)C(=O)N(C)[C@@H](C2CCCCC2)C(=O)N(C)[C@H](C(=O)N2CCCCC2)CC(=O)N1C [Compound 689] ([NMeL][Ala(cPr)][Sar][Sar][NMeCha][Sar][hPhe(3-Cl-4-CF3)]P[Ac5c][NMeChg][NMeD]-Piperidide; lactam N-11)	100 to 500	2.1
CC[C@H](C)[C@@H]1NC(=O)[C@H](CC(C)C)N(C)C(=O)C[C@@H](C(=O)N2CCCCC2)N(C)C(=O)[C@H](C(C)C)N(C)C(=O)C2(CCCC2)NC(=O)[C@@H]2CCCN2C(=O)[C@H](CCc2ccc(C(F)(F)F)c(Cl)c2)NC(=O)CN(C)C(=O)[C@H](Cc2ccc(F)cc2)N(C)C(=O)CN(C)C(=O)CN(C)C1=O [Compound 1631] ([NMeL]I[Sar][Sar][NMePhe(4-F)][Sar][hPhe(3-Cl-4-CF3)]P[Ac5c][NMeV][NMeD]-Piperidide; lactam N-11)	100 to 500	5
CC[C@H](C)[C@@H]1NC(=O)[C@H](CC(C)C)N(C)C(=O)C[C@@H](C(=O)N2CCCCC2)N(C)C(=O)[C@H](C(C)C)N(C)C(=O)C2(CCC2)NC(=O)[C@@H]2CCCN2C(=O)[C@H](CCc2ccc(C(F)(F)F)c(Cl)c2)NC(=O)CN(C)C(=O)[C@H](CC2CCCCC2)N(C)C(=O)CN(C)C(=O)CN(C)C1=O [Compound 712] ([NMeL]I[Sar][Sar][NMeCha][Sar][hPhe(3-Cl-4-CF3)]P[Ac4c][NMeV][NMeD]-Piperidide; lactam N-11)	50 to 100	2.7
CC[C@H](C)[C@@H]1NC(=O)[C@H](CC(C)C)N(C)C(=O)C[C@@H](C(=O)N2CCCCC2)N(C)C(=O)[C@H](C(C)C)N(C)C(=O)C2(CCCC2)NC(=O)[C@@H]2CCCN2C(=O)[C@H](CCc2ccc(C(F)(F)F)c(Cl)c2)NC(=O)CN(C)C(=O)[C@H](Cc2cccc(Cl)c2)N(C)C(=O)CN(C)C(=O)CN(C)C1=O [Compound 1611] ([NMeL]I[Sar][Sar][NMePhe(3-Cl)][Sar][hPhe(3-Cl-4-CF3)]P[Ac5c][NMeV][NMeD]-Piperidide; lactam N-11)	100 to 500	3.2
CC[C@H](C)[C@@H]1NC(=O)[C@H](CC(C)C)N(C)C(=O)C[C@@H](C(=O)N2CCCCC2)N(C)C(=O)[C@H](C(C)C)N(C)C(=O)C2(CCCC2)NC(=O)[C@@H]2CCCN2C(=O)[C@H](CCc2ccc(C(F)(F)F)c(Cl)c2)NC(=O)CN(C)C(=O)[C@H](Cc2cccc(Br)c2)N(C)C(=O)CN(C)C(=O)CN(C)C1=O [Compound 1643] ([NMeL]I[Sar][Sar][NMePhe(3-Br)][Sar][hPhe(3-Cl-4-CF3)]P[Ac5c][NMeV][NMeD]-Piperidide; lactam N-11)	100 to 500	7.2
CC[C@H](C)[C@@H]1NC(=O)[C@H](CC(F)(F)F)N(C)C(=O)C[C@@H](C(=O)N2C3CCC2COC3)N(C)C(=O)[C@H](C2CCCCC2)N(C)C(=O)C2(CCCC2)NC(=O)[C@@H]2CCCN2C(=O)[C@H](CCc2ccc(C(F)(F)F)c(Cl)c2)NC(=O)CN(C)C(=O)[C@H](Cc2ccc(C(F)(F)F)cc2)N(C)C(=O)CN(C)C(=O)CN(C)C1=O [Compound 173] ([NMeAbu(4,4,4-F3)]I[Sar][Sar][NMePhe(4-CF3)][Sar][hPhe(3-Cl-4-CF3)]P[Ac5c][NMeChg][NMeD]-{3Oxa8azabicyclo(3.2.1)octane}; lactam N-11)	20 to 50	0.56
CC[C@H](C)[C@@H]1NC(=O)[C@H](C(C)C)N(C)C(=O)C[C@@H](C(=O)N2CCCCC2)N(C)C(=O)[C@H](C2CCCCC2)N(C)C(=O)C2(CCCC2)NC(=O)[C@@H]2CCCN2C(=O)[C@H](CCc2ccc(C(F)(F)F)c(Cl)c2)NC(=O)CN(C)C(=O)[C@H](CC2CCCCC2)N(C)C(=O)CN(C)C(=O)CN(C)C1=O [Compound 1807] ([NMeV]I[Sar][Sar][NMeCha][Sar][hPhe(3-Cl-4-CF3)]P[Ac5c][NMeChg][NMeD]-Piperidide; lactam N-11)	50 to 100	0.89
CC[C@H](C)[C@@H]1NC(=O)[C@H](C)N(C)C(=O)C[C@@H](C(=O)N2CCCCC2)N(C)C(=O)[C@H](C2CCCC2)N(C)C(=O)C2(CCCC2)NC(=O)[C@@H]2CCCN2C(=O)[C@H](CCc2ccc(C(F)(F)F)c(Cl)c2)NC(=O)CN(C)C(=O)[C@H](CC2CCCCC2)N(C)C(=O)CN(C)C(=O)CN(C)C1=O [Compound 246] ([NMeA]I[Sar][Sar][NMeCha][Sar][hPhe(3-Cl-4-CF3)]P[Ac5c][NMeGly(cPent)][NMeD]-Piperidide; lactam N-11)	50 to 100	0.3
CC[C@H](C)[C@@H]1NC(=O)[C@H](CC(C)C)N(C)C(=O)C[C@@H](C(=O)N2CCCCC2)N(C)C(=O)[C@H](C(C)C)N(C)C(=O)C2(CCCC2)NC(=O)[C@@H]2CCCN2C(=O)[C@H](CCc2ccc(C(F)(F)F)c(Cl)c2)NC(=O)CN(C)C(=O)[C@H](C2CCCC2)N(C)C(=O)[C@@H]2CCN2C(=O)[C@H](C)N(C)C1=O [Compound 1825] ([NMeL]I[NMeA][Aze][NMeGly(cPent)][Sar][hPhe(3-Cl-4-CF3)]P[Ac5c][NMeV][NMeD]-Piperidide; lactam N-11)	100 to 500	3.4
CC[C@H](C)[C@@H]1NC(=O)[C@H](CC(C)C)N(C)C(=O)C[C@@H](C(=O)N(C)C)N(C)C(=O)[C@H]([C@@H](C)CC)N(C)C(=O)C2(CCCC2)NC(=O)[C@H](CC(=O)N2CCC(F)(F)CC2)N(C)C(=O)[C@H](CCc2ccc(C(F)(F)F)c(Cl)c2)NC(=O)CN(C)C(=O)[C@H](Cc2ccc(C)cc2)N(C)C(=O)[C@@H]2CCN2C(=O)[C@H](C)N(C)C1=O [Compound 1980] ([NMeL]I[NMeA][Aze][NMePhe(4-Me)][Sar][hPhe(3-Cl-4-CF3)][NMeD](N(CH2CH2)2CF2)[Ac5c][NMeI][NMeD]-NMe2; lactam N-11)	100 to 500	1.5
CC[C@H](C)[C@@H]1NC(=O)[C@H](C)N(C)C(=O)C[C@@H](C(=O)N2CCCCC2)N(C)C(=O)[C@H](C(C)C)N(C)C(=O)C2(CCCC2)NC(=O)[C@@H]2CCCN2C(=O)[C@H](CCc2cc(Cl)c(Cl)c(OC)c2)NC(=O)CN(C)C(=O)[C@H](CC2CCCCC2)N(C)C(=O)CN(C)C(=O)CN(C)C1=O [Compound 2061] ([NMeA]I[Sar][Sar][NMeCha][Sar][X15]P[Ac5c][NMeV][NMeD]-Piperidide; lactam N-11)	> 500	21
CC[C@H](C)[C@@H]1NC(=O)[C@H](CC(C)C)N(C)C(=O)C[C@@H](C(=O)N2C3CCC2COC3)N(C)C(=O)[C@H](C2CCCCC2)N(C)C(=O)C2(CCCC2)NC(=O)[C@@H]2CCCN2C(=O)[C@H](CCc2ccc(C(F)(F)F)c(F)c2)NC(=O)CN(C)C(=O)[C@H](CC2CCCCC2)N(C)C(=O)CN(C)C(=O)CN(C)C1=O [Compound 1957] ([NMeL]I[Sar][Sar][NMeCha][Sar][hPhe(3-F,4-CF3)]P[Ac5c][NMeChg][NMeD]-{3Oxa8azabicyclo(3.2.1)octane}; lactam N-11)	100 to 500	1.2
CC[C@H](C)[C@@H]1NC(=O)[C@H](CC(C)C)N(C)C(=O)C[C@@H](C)NC(=O)[C@H](C(C)C)N(C)C(=O)C2(CCCC2)NC(=O)[C@@H]2CCCN2C(=O)[C@H](CCc2ccc(C(F)(F)F)c(Cl)c2)NC(=O)CN(C)C(=O)[C@H](CC2CCCCC2)N(C)C(=O)CN(C)C(=O)CN(C)C1=O [Compound 1457] (cyclo([Ac5c][NMeV][d(β3hA)][NMeL]I[Sar][Sar][NMeCha][Sar][hPhe(3-Cl-4-CF3)]P))	100 to 500	11
CC[C@H](C)[C@@H]1NC(=O)[C@H](CC(C)C)N(C)C(=O)C[C@@H](C(=O)N2CCCCC2)N(C)C(=O)[C@H](C(C)C)N(C)C(=O)C2(CCCC2)NC(=O)[C@@H]2CCCN2C(=O)[C@H](CCc2ccc(C(F)(F)F)c(Cl)c2)NC(=O)CN(C)C(=O)[C@H](Cc2cccc(OC(F)(F)F)c2)N(C)C(=O)CN(C)C(=O)CN(C)C1=O [Compound 1640] ([NMeL]I[Sar][Sar][X38][Sar][hPhe(3-Cl-4-CF3)]P[Ac5c][NMeV][NMeD]-Piperidide; lactam N-11)	100 to 500	6.6
